# In US20260152503A1, “SPIROBICYCLIC COMPOUNDS” (ACERAND THERAPEUTICS (HONG KONG) LIMITED, priority 2022, published 2026):
# pIC50: −log10 of the molar value.
# Assays:
# Format in all cases: cell-based
# FGFR1 = molecular target: T1, FGFR1 (Homo sapiens, UniProt P11362); experiment: pERK potency assay (In Cell ELISA), DMS114 cells; details: DMS114 (FGFR1 amplification) cells, 3 hours
# T1 construct: DMS114 (FGFR1 amplification); host or cells: DMS114
# Text: (§1) The purpose of this assay is to measure the ability of test compounds to inhibit FGFR mediated downstream signaling cascades, i.e., ERK phosphorylation in cells with FGFR aberrations. FGFR aberrations become constitutively active and thus induces cascades of cellular signaling events that result in increased phosphorylation of ERK at Threonine 202 and Tyrosine 204 (pERK). The procedure called In Cell ELISA described below measures the level of cellular pERK in response to FGFR specific inhibitor compounds in FGFR aberrations of AN3CA (FGFR2/k310R, N549K), DMS114 (FGFR1 amplification), RT112 (FGFR3 overexpression/FGFR3-TACC3 fusion) and Hep3B (FGF19 amplification) cells. AN3CA, DMS114 and Hep3B cells are from ATCC. RT112 cells are from Sigma. DMS114 cells are grown and maintained using RPMI-1640 medium supplemented with 10% heat-inactivated fetal bovine serum. AN3CA, Hep3B and RT112 cells are grown and maintained using DMEM supplemented with 10% heat-inactivated fetal bovine serum. On the day before test compound addition, cells are plated in poly-D-lysine coated 96-well cell culture plates (Corning® BioCoat® Cat #356640) at 40000 cells/well/100 μL and grown overnight in a 37° C., 5% CO2 incubator. Test compounds are prepared with 4-fold serial dilutions in DMSO, with a top concentration of 10 μM. On the day of the assay, 50 μL of test compound diluted in media was added to each well of cell culture plate with the final concentration of compounds spanning from 0.000038 μM to 10 μM. After compound addition, cells are incubated for 3 hours at 37° C., 5% CO2 and then the culture medium is removed. Cells are fixed with 4% formaldehyde in phosphate-buffered saline (PBS) and incubated at RT for 20 min. The plate is then washed three times with PBST (PBS with 0.05% tween-20), followed by the incubation with 100 μL of pre-cooled methanol at −20° C. for 20 min. After incubation, methanol is removed, and the plate is washed once with PBST. Cells are permeabilized with 100 µL/well of 0.1% Triton X-100 in PBS at RT for 20 min and then quenched with quenching buffer (PBST containing 1% H2O2 and 0.1% sodium azide) for 20 min at RT with gentle shaking. After washing once with PBST, blocking buffer (250 ul/well, Pierce™ Protein-Free-PBS Blocking Buffer, Cat #37572) was then added to the cells for 1-h incubation at RT, followed by anti-pERK antibody (cell signaling, 1:1000 dilution in 5% BSA in PBST) incubation overnight at 4° C. and secondary antibody-HRP (Jackson immunoresearch, 1:3000 dilution in 5% BSA in PBST) incubation at RT for 1 h. PBST wash is carried out after each step three times. Before the addition of the substrate (Advansta ELISABright), the plate is washed with PBS twice to remove detergent residues. Cellular pERK level is determined using the microplate reader (Biotek Synergy H1) to detect the chemiluminescence signal. IC50 is determined by fitting a 4-parameter sigmoidal concentration-response model. FGFR wild type cells (H1975, PC-9 and AGS) are used to serve as negative control (FGFR selectivity) with the same assay procedures described above.
# FGFR3 = molecular target: T2, FGFR3 (Homo sapiens, UniProt P22607); experiment: pERK potency assay (In Cell ELISA), RT112 cells; details: RT112 (FGFR3 overexpression/FGFR3-TACC3 fusion) cells, 3 hours
# T2 construct: RT112 (FGFR3 overexpression/FGFR3-TACC3 fusion); host or cells: RT112; the other entry of the earlier key: TACC3 (Q9Y6A5, Transforming acidic coiled-coil-containing protein 3)
# Text: as §1
# FGFR2 = molecular target: T3, FGFR2 (Homo sapiens, UniProt P21802, K310R/N549K); experiment: pERK potency assay (In Cell ELISA), AN3CA cells; details: for pIC50: pERK, AN3CA (FGFR2/k310R, N549K) cells, 3 hours; for FGFR1 IC50/FGFR2 IC50 / FGFR3 IC50/FGFR2 IC50: selectivity ratio, pERK potency; for FGFR1 IC50/FGFR2 IC50: FGFR2 relative to FGFR1; for FGFR3 IC50/FGFR2 IC50: FGFR2 relative to FGFR3
# T3 construct: in FGFR aberrations of AN3CA (FGFR2/k310R, N549K); host or cells: AN3CA
# Text: as §1
# T3 sequence (P21802 22-821 K310R/N549K): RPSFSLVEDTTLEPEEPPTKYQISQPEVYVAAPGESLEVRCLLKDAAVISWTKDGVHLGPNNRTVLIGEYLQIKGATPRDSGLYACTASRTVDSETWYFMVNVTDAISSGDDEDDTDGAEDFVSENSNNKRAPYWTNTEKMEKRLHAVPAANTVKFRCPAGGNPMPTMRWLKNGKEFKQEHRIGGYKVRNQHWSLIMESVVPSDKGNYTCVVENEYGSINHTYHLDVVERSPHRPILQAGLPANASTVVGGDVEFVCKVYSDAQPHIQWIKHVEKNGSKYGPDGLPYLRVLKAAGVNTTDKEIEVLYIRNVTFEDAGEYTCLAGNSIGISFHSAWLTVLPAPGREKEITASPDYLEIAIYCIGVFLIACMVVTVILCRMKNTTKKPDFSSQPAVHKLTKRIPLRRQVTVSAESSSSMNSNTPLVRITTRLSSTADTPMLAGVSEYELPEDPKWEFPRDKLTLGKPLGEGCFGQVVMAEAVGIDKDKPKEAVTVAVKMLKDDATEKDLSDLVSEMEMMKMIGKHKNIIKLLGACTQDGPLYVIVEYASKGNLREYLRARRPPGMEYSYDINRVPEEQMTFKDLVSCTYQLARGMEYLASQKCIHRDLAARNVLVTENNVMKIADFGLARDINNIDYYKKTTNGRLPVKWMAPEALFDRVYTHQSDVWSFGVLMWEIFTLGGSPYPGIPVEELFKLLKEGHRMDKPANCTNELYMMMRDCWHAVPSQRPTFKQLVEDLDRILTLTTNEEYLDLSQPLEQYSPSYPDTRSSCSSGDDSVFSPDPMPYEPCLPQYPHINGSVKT
# T1 sequence (P11362 22-822): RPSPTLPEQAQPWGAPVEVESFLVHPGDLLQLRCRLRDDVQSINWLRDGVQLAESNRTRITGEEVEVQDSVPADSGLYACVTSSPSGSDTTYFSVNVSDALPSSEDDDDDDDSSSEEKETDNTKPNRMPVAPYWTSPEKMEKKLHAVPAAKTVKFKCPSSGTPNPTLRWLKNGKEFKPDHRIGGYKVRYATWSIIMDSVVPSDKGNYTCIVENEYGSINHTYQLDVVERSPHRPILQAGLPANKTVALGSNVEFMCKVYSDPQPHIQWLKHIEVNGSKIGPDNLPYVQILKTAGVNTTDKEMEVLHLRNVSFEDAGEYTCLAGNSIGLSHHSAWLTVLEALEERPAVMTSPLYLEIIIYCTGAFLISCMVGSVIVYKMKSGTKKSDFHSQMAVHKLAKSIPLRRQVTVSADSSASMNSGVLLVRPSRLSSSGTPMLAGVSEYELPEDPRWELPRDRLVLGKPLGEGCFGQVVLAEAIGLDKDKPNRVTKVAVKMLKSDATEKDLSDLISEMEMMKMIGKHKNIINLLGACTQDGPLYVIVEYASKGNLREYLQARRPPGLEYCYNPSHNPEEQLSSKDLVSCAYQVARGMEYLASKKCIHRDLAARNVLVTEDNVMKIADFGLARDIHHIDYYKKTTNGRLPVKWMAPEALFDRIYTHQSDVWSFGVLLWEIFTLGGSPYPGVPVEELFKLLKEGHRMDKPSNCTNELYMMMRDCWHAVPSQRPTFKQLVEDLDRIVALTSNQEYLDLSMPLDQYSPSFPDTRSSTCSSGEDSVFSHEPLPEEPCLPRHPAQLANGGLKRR
SMILES,pIC50 (FGFR1),pIC50 (FGFR3),pIC50 (FGFR2),FGFR3 IC50/FGFR2 IC50 (FGFR2; given as numeric bound),FGFR1 IC50/FGFR2 IC50 (FGFR2),FGFR3 IC50/FGFR2 IC50 (FGFR2)
"C=CC(=O)N1CCC2(CC=C(c3c(-c4ncco4)c4c(N)ncnc4n3C)CC2)CC1 [Example 53, 1-(9-(4-amino-7-methyl-5-(oxazol-2-yl)-7H-pyrrolo[2,3-d]pyrimidin-6-yl)-3-azaspiro[5.5]undec-8-en-3-yl)prop-2-en-1-one]",< 7.00,< 7.00,< 7.00,–,–,–
"C=CC(=O)NC1CC2(CC=C(c3c(-c4ccc(Oc5ncccn5)cc4)c4c(N)ncnc4n3C)CC2)C1 (stereo not shown) [Example 9, N-(7-(4-amino-7-methyl-5-(4-(pyrimidin-2-yloxy)phenyl)-7H-pyrrolo[2,3-d]pyrimidin-6-yl)spiro[3.5]non-6-en-2-yl)acrylamide]",< 7.00,< 7.00,7.52 to 8.00,<50,F (a selectivity ratio greater than 50 but less than or equal to 150),–
"C=CC(=O)N1CCC2(CC=C(c3c(-c4ccncn4)c4c(N)ncnc4n3C)CC2)CC1 [Example 60, 1-(9-(4-amino-7-methyl-5-(pyrimidin-4-yl)-7H-pyrrolo[2,3-d]pyrimidin-6-yl)-3-azaspiro[5.5]undec-8-en-3-yl)prop-2-en-1-one]",< 7.00,< 7.00,7.52 to 8.00,–,–,F (a selectivity ratio greater than 50 but less than or equal to 150)

# Further lines, with some results ahead:
pIC50 (FGFR1),pIC50 (FGFR3),pIC50 (FGFR2),FGFR3 IC50/FGFR2 IC50 (FGFR2; given as numeric bound),SMILES,FGFR1 IC50/FGFR2 IC50 (FGFR2),FGFR3 IC50/FGFR2 IC50 (FGFR2)
< 7.00,< 7.00,8.00 to 9.00,–,"C=CC(=O)N1CCC2(CC=C(c3c(-c4ncc5c(n4)CCO5)c4c(N)ncnc4n3C)CC2)CC1 [Example 48, 1-(9-(4-amino-5-(6,7-dihydrofuro[3,2-d]pyrimidin-2-yl)-7-methyl-7H-pyrrolo[2,3-d]pyrimidin-6-yl)-3-azaspiro[5.5]undec-8-en-3-yl)prop-2-en-1-one]",H (a selectivity ratio greater than 500 but less than or equal to 1000),J (a selectivity ratio greater than 2000)
< 7.00,< 7.00,8.00 to 9.00,–,"C=CC(=O)N1CCC2(CC=C(c3c(-c4ncccn4)c4c(N)ncnc4n3C)CC2)CC1(C)C (stereo not shown) [Example 34, 1-(9-(4-amino-7-methyl-5-(pyrimidin-2-yl)-7H-pyrrolo[2,3-d]pyrimidin-6-yl)-2,2-dimethyl-3-azaspiro[5.5]undec-8-en-3-yl)prop-2-en-1-one]",H (a selectivity ratio greater than 500 but less than or equal to 1000),J (a selectivity ratio greater than 2000)
< 7.00,< 7.00,8.00 to 9.00,–,"C=CC(=O)N1CCC2(CC=C(c3c(-c4ccc(OC)nc4)c4c(N)ncnc4n3C)CC2)CC1(C)C (stereo not shown) [Example 40, 1-(9-(4-amino-5-(6-methoxypyridin-3-yl)-7-methyl-7H-pyrrolo[2,3-d]pyrimidin-6-yl)-2,2-dimethyl-3-azaspiro[5.5]undec-8-en-3-yl)prop-2-en-1-one]",G (a selectivity ratio greater than 150 but less than or equal to 500),I (a selectivity ratio greater than 1000 but less than or equal to 2000)
< 7.00,< 7.00,< 7.00,–,"C=CC(=O)N1CCC2(CCC(c3c(-c4ccc(Oc5ncccn5)cc4)c4c(N)ncnc4n3C)CC2)CC1 [Example 6, 1-(9-(4-amino-7-methyl-5-(4-(pyrimidin-2-yloxy)phenyl)-7H-pyrrolo[2,3-d]pyrimidin-6-yl)-3-azaspiro[5.5]undecan-3-yl)prop-2-en-1-one]",–,–
< 7.00,< 7.00,7.00 to 7.52,–,"C=CC(=O)N1CCC2(CC=C(c3c(-c4ccc(OCCN5CCCC5)cc4)c4c(N)ncnc4n3C)CC2)CC1 [Example 20, 1-(9-(4-amino-7-methyl-5-(4-(2-(pyrrolidin-1-yl)ethoxy)phenyl)-7H-pyrrolo[2,3-d]pyrimidin-6-yl)-3-azaspiro[5.5]undec-8-en-3-yl)prop-2-en-1-one]",–,F (a selectivity ratio greater than 50 but less than or equal to 150)
